Experimental data from PMC5218480 (PLoS ONE, 2017).

Test system: MV-4-11 cells
Experiment: Gene expression microarray analysis (Affymetrix PrimeView) and GSEA
Assay type: cell-based, human
Set-up: RFU PODN (11730768_x_at) / Fold change /veh PODN (11730768_x_at) / RFU LINC00158 (11744669_a_at) / Fold change /veh LINC00158 (11744669_a_at) / RFU DUSP10 (11751237_a_at) / Fold change /veh DUSP10 (11751237_a_at) / RFU ID3 (11757404_x_at) / Fold change /veh ID3 (11757404_x_at) / RFU PLEKHG5 (11737974_s_at) / Fold change /veh PLEKHG5 (11737974_s_at) / RFU LRRC4B (11730491_at) / Fold change /veh LRRC4B (11730491_at) / RFU GIMAP4 (11747438_a_at) / Fold change /veh GIMAP4 (11747438_a_at) / RFU KRT8 (11758183_x_at) / Fold change /veh KRT8 (11758183_x_at) / RFU CNN1 (11734310_a_at) / Fold change /veh CNN1 (11734310_a_at) / RFU VPS37D (11726825_at) / Fold change /veh VPS37D (11726825_at) / RFU C10orf10 (11716522_x_at) / Fold change /veh C10orf10 (11716522_x_at) / RFU KIR2DL2 /// KIR2DL4 /// KIR2DL5A /// KIR2DL5B /// KIR2DS1 /// KIR2DS2 /// KIR2DS3 /// KIR2DS4 /// KIR3DL3 /// KIR3DL3 /// KIR3DS1 (11738374_at) / Fold change /veh KIR2DL2 /// KIR2DL4 /// KIR2DL5A /// KIR2DL5B /// KIR2DS1 /// KIR2DS2 /// KIR2DS3 /// KIR2DS4 /// KIR3DL3 /// KIR3DL3 /// KIR3DS1 (11738374_at) / RFU C1QL1 (11718748_at) / Fold change /veh C1QL1 (11718748_at) / RFU TMPRSS4 (11747572_a_at) / Fold change /veh TMPRSS4 (11747572_a_at) / RFU HAMP (11756126_x_at) / Fold change /veh HAMP (11756126_x_at) / RFU RNFT2 (11725882_a_at) / Fold change /veh RNFT2 (11725882_a_at) / RFU NR4A2 (11747474_a_at) / Fold change /veh NR4A2 (11747474_a_at) / RFU ABCC12 (11746883_a_at) / Fold change /veh ABCC12 (11746883_a_at) / RFU TMEM136 (11760407_x_at) / Fold change /veh TMEM136 (11760407_x_at) / RFU CLDN22 /// WWC2 (11732394_at) / Fold change /veh CLDN22 /// WWC2 (11732394_at) / RFU HLA-DPB1 (11760878_x_at) / Fold change /veh HLA-DPB1 (11760878_x_at) / RFU SPINT1 (11716480_a_at) / Fold change /veh SPINT1 (11716480_a_at) / RFU GAP43 (11754022_s_at) / Fold change /veh GAP43 (11754022_s_at) / RFU A4GNT (11735810_at) / Fold change /veh A4GNT (11735810_at) / RFU PRB3 (11715151_x_at) / Fold change /veh PRB3 (11715151_x_at) / RFU TUBB4B (11761932_at) / Fold change /veh TUBB4B (11761932_at) / RFU CAPN14 (11732068_a_at) / Fold change /veh CAPN14 (11732068_a_at) / RFU TMCC2 (11721928_a_at) / Fold change /veh TMCC2 (11721928_a_at) / RFU IRGQ (11745062_a_at) / Fold change /veh IRGQ (11745062_a_at) / RFU FAM174B (11720279_a_at) / Fold change /veh FAM174B (11720279_a_at) / RFU TMPRSS4 (11748680_a_at) / Fold change /veh TMPRSS4 (11748680_a_at) / RFU FAM212B (11763350_a_at) / Fold change /veh FAM212B (11763350_a_at) / RFU PLEKHG5 (11743358_a_at) / Fold change /veh PLEKHG5 (11743358_a_at) / RFU ZSCAN30 (11745921_a_at) / Fold change /veh ZSCAN30 (11745921_a_at) / RFU CMKLR1 (11741424_a_at) / Fold change /veh CMKLR1 (11741424_a_at) / RFU LOC101060620 /// MAPK8IP1 (11723275_at) / Fold change /veh LOC101060620 /// MAPK8IP1 (11723275_at) / RFU SPTSSB (11747773_x_at) / Fold change /veh SPTSSB (11747773_x_at) / RFU PRSS12 (11739890_at) / Fold change /veh PRSS12 (11739890_at) / RFU BIN1 (11741810_x_at) / Fold change /veh BIN1 (11741810_x_at) / RFU WNT11 (11732464_a_at) / Fold change /veh WNT11 (11732464_a_at) / RFU C10orf10 (11716521_a_at) / Fold change /veh C10orf10 (11716521_a_at) / RFU C5orf56 (11738089_at) / Fold change /veh C5orf56 (11738089_at) / RFU CYB561 (11721691_x_at) / Fold change /veh CYB561 (11721691_x_at) / RFU ANKRD19P (11752326_a_at) / Fold change /veh ANKRD19P (11752326_a_at) / RFU OR2T12 /// OR2T33 /// OR2T8 (11738714_s_at) / Fold change /veh OR2T12 /// OR2T33 /// OR2T8 (11738714_s_at) / RFU VCAN (11748164_a_at) / Fold change /veh VCAN (11748164_a_at) / RFU JSRP1 (11732532_at) / Fold change /veh JSRP1 (11732532_at) / RFU KRTAP10-11 (11738290_x_at) / Fold change /veh KRTAP10-11 (11738290_x_at) / RFU MYO3A (11730013_a_at) / Fold change /veh MYO3A (11730013_a_at) / RFU EBF3 (11725865_a_at) / Fold change /veh EBF3 (11725865_a_at) / RFU CAMK2N1 (11719241_x_at) / Fold change /veh CAMK2N1 (11719241_x_at) / RFU C5orf56 (11738088_a_at) / Fold change /veh C5orf56 (11738088_a_at) / RFU OLFML3 (11715873_a_at) / Fold change /veh OLFML3 (11715873_a_at) / RFU LOC100653217 /// NTM (11731650_a_at) / Fold change /veh LOC100653217 /// NTM (11731650_a_at) / RFU MAPK11 (11762145_a_at) / Fold change /veh MAPK11 (11762145_a_at) / RFU FIZ1 (11724087_x_at) / Fold change /veh FIZ1 (11724087_x_at) / RFU OASL (11726364_x_at) / Fold change /veh OASL (11726364_x_at) / RFU SOX15 (11748057_x_at) / Fold change /veh SOX15 (11748057_x_at) / RFU CD79A (11719716_a_at) / Fold change /veh CD79A (11719716_a_at) / RFU HIST1H1D (11736915_at) / Fold change /veh HIST1H1D (11736915_at) / RFU CASKIN2 (11723855_a_at) / Fold change /veh CASKIN2 (11723855_a_at) / RFU LOC730098 (11760151_x_at) / Fold change /veh LOC730098 (11760151_x_at) / RFU OR4N2 (11742367_at) / Fold change /veh OR4N2 (11742367_at) / RFU PRRT2 (11749266_a_at) / Fold change /veh PRRT2 (11749266_a_at) / RFU SNX32 (11753110_a_at) / Fold change /veh SNX32 (11753110_a_at) / RFU CDHR5 (11726645_a_at) / Fold change /veh CDHR5 (11726645_a_at) / RFU RCAN1 (11760418_a_at) / Fold change /veh RCAN1 (11760418_a_at) / RFU FAM167A (11723789_a_at) / Fold change /veh FAM167A (11723789_a_at) / RFU FAM26E (11764081_at) / Fold change /veh FAM26E (11764081_at) / RFU ISYNA1 (11749810_s_at) / Fold change /veh ISYNA1 (11749810_s_at) / RFU ACY1 (11761880_at) / Fold change /veh ACY1 (11761880_at) / RFU 11764098_at / Fold change /veh 11764098_at / RFU SAMD14 (11745864_x_at) / Fold change /veh SAMD14 (11745864_x_at) / RFU NPB (11741838_a_at) / Fold change /veh NPB (11741838_a_at) / RFU TMPRSS6 (11731388_a_at) / Fold change /veh TMPRSS6 (11731388_a_at) / RFU KRTAP10-2 (11738614_at) / Fold change /veh KRTAP10-2 (11738614_at) / RFU ARHGAP8 /// PRR5-ARHGAP8 (11727945_x_at) / Fold change /veh ARHGAP8 /// PRR5-ARHGAP8 (11727945_x_at) / RFU KRTAP5-7 /// NADSYN1 (11734609_at) / Fold change /veh KRTAP5-7 /// NADSYN1 (11734609_at) / RFU RASL12 (11751679_a_at) / Fold change /veh RASL12 (11751679_a_at) / RFU CDKN2B (11736163_a_at) / Fold change /veh CDKN2B (11736163_a_at) / RFU PRF1 (11729649_at) / Fold change /veh PRF1 (11729649_at) / RFU, ZNF638 /// ZNF638-IT1 / Fold change vs veh, ZNF638 /// ZNF638-IT1 / RFU, PANK3 / Fold change vs veh, PANK3 / RFU, SH3YL1 / Fold change vs veh, SH3YL1 / RFU, ZEB2 / Fold change vs veh, ZEB2 / RFU, NRIP1 / Fold change vs veh, NRIP1 / RFU, PTTG1IP / Fold change vs veh, PTTG1IP / RFU, CAPN2 / Fold change vs veh, CAPN2 / RFU, MED14 / Fold change vs veh, MED14 / RFU, SNORA58 / Fold change vs veh, SNORA58 / RFU, C1orf63 / Fold change vs veh, C1orf63 / RFU, LRRFIP1 / Fold change vs veh, LRRFIP1 / RFU, NDUFAF7 / Fold change vs veh, NDUFAF7 / RFU, SLC12A2 / Fold change vs veh, SLC12A2 / RFU, IBTK / Fold change vs veh, IBTK / RFU, ESF1 / Fold change vs veh, ESF1 / Fold change vs veh, TMEM50B / RFU, TAOK1 / Fold change vs veh, TAOK1 / RFU, ACBD3 / Fold change vs veh, ACBD3 / RFU, TMA16 / Fold change vs veh, TMA16 / RFU, RWDD3 / Fold change vs veh, RWDD3 / RFU, BCAT1 / Fold change vs veh, BCAT1 / RFU, EDEM3 / Fold change vs veh, EDEM3 / RFU, TMEM33 / Fold change vs veh, TMEM33 / RFU, WDR75 / Fold change vs veh, WDR75 / RFU, AHCTF1 / Fold change vs veh, AHCTF1 / RFU, TFRC / Fold change vs veh, TFRC / RFU, ZDHHC17 / Fold change vs veh, ZDHHC17 / RFU, NOM1 / Fold change vs veh, NOM1 / RFU, ARL8B / Fold change vs veh, ARL8B / RFU, ZBTB11 / Fold change vs veh, ZBTB11 / RFU, TAMM41 / Fold change vs veh, TAMM41 / RFU, KIAA1704 /// LOC100996395 / Fold change vs veh, KIAA1704 /// LOC100996395 / RFU, ING1 / Fold change vs veh, ING1 / RFU, TRMT61B / Fold change vs veh, TRMT61B / RFU, FUBP3 / Fold change vs veh, FUBP3 / RFU, TP53 / Fold change vs veh, TP53 / RFU, TNKS2 / Fold change vs veh, TNKS2 / RFU, ZFP14 / Fold change vs veh, ZFP14 / RFU, ACTR2 / Fold change vs veh, ACTR2 / RFU, PPP3R1 / Fold change vs veh, PPP3R1 / RFU, PIK3R1 / Fold change vs veh, PIK3R1 / RFU, HNRNPA1 / Fold change vs veh, HNRNPA1 / RFU, RNF170 / Fold change vs veh, RNF170 / RFU, ZNF28 / Fold change vs veh, ZNF28 / RFU, RNGTT / Fold change vs veh, RNGTT / RFU, OGT / Fold change vs veh, OGT / RFU, BRD1 / Fold change vs veh, BRD1 / RFU, MARS / Fold change vs veh, MARS / RFU, ZNF655 / Fold change vs veh, ZNF655 / RFU, FAHD1 / Fold change vs veh, FAHD1 / RFU, BDP1 / Fold change vs veh, BDP1 / RFU, LRRCC1 / Fold change vs veh, LRRCC1 / RFU, ARID1A / Fold change vs veh, ARID1A / RFU, ZNF146 / Fold change vs veh, ZNF146 / RFU, ZNF330 / Fold change vs veh, ZNF330 / RFU, GPN3 / Fold change vs veh, GPN3 / RFU, C9orf123 / Fold change vs veh, C9orf123 / RFU, N4BP2L2 / Fold change vs veh, N4BP2L2 / RFU, ARFIP1 / Fold change vs veh, ARFIP1 / RFU, FAM179B / Fold change vs veh, FAM179B / RFU, BCL10 / Fold change vs veh, BCL10 / RFU, UHRF1BP1L / Fold change vs veh, UHRF1BP1L / RFU, BET1 / Fold change vs veh, BET1 / RFU, CNOT2 / Fold change vs veh, CNOT2 / RFU, ZNF268 / Fold change vs veh, ZNF268 / Fold change vs veh, ZNF507 / RFU, DGCR2 / Fold change vs veh, DGCR2 / RFU, WDSUB1 / Fold change vs veh, WDSUB1 / Fold change vs veh, HSP90B1 /// MIR3652 / RFU, ADSS / Fold change vs veh, ADSS / RFU, GK / Fold change vs veh, GK / RFU, ZNF148 / Fold change vs veh, ZNF148 / RFU, TAF9 / Fold change vs veh, TAF9 / RFU, SLC1A5 / Fold change vs veh, SLC1A5 / RFU, SLMO2 / Fold change vs veh, SLMO2 / RFU, ABCC4 / Fold change vs veh, ABCC4 / RFU, LOC101060439 /// RAP1B / Fold change vs veh, LOC101060439 /// RAP1B / RFU, RFX7 / Fold change vs veh, RFX7 / RFU, GTPBP10 / Fold change vs veh, GTPBP10 / RFU, CNEP1R1 / Fold change vs veh, CNEP1R1 / RFU, BIVM-ERCC5 /// ERCC5 / Fold change vs veh, BIVM-ERCC5 /// ERCC5 / RFU, ILF3 / Fold change vs veh, ILF3 / RFU 11762660_at / Fold change /veh 11762660_at / RFU VCAN (11757783_s_at) / Fold change /veh VCAN (11757783_s_at) / RFU DDX43 (11728927_at) / Fold change /veh DDX43 (11728927_at) / RFU KRT8 (11758188_x_at) / Fold change /veh KRT8 (11758188_x_at) / RFU NKD1 (11759106_at) / Fold change /veh NKD1 (11759106_at) / RFU SRD5A1 (11742802_a_at) / Fold change /veh SRD5A1 (11742802_a_at) / RFU TPSAB1 /// TPSB2 (11721975_s_at) / Fold change /veh TPSAB1 /// TPSB2 (11721975_s_at) / RFU GSTM3 (11746129_a_at) / Fold change /veh GSTM3 (11746129_a_at) / RFU IL23R (11737362_x_at) / Fold change /veh IL23R (11737362_x_at) / RFU TMEM51 (11727254_a_at) / Fold change /veh TMEM51 (11727254_a_at) / RFU PIWIL2 (11732686_x_at) / Fold change /veh PIWIL2 (11732686_x_at) / RFU ORM1 (11744905_x_at) / Fold change /veh ORM1 (11744905_x_at) / RFU CCDC152 (11743942_at) / Fold change /veh CCDC152 (11743942_at) / RFU ECM1 (11717891_a_at) / Fold change /veh ECM1 (11717891_a_at) / RFU IL23R (11748794_a_at) / Fold change /veh IL23R (11748794_a_at) / RFU TNFAIP8L3 (11732012_x_at) / Fold change /veh TNFAIP8L3 (11732012_x_at) / RFU MBOAT4 (11741988_at) / Fold change /veh MBOAT4 (11741988_at) / RFU 11764193_at / Fold change /veh 11764193_at / RFU TMEM53 (11763286_at) / Fold change /veh TMEM53 (11763286_at) / RFU MAGEB2 (11727129_at) / Fold change /veh MAGEB2 (11727129_at) / RFU TMEM200A (11744735_a_at) / Fold change /veh TMEM200A (11744735_a_at) / RFU CCDC152 (11751479_a_at) / Fold change /veh CCDC152 (11751479_a_at) / RFU FAM211A (11726209_a_at) / Fold change /veh FAM211A (11726209_a_at) / RFU RGS16 (11746705_a_at) / Fold change /veh RGS16 (11746705_a_at) / RFU VCAN (11755009_s_at) / Fold change /veh VCAN (11755009_s_at) / RFU RHOB (11743442_s_at) / Fold change /veh RHOB (11743442_s_at) / RFU RGS16 (11720943_a_at) / Fold change /veh RGS16 (11720943_a_at) / RFU RGS16 (11720944_at) / Fold change /veh RGS16 (11720944_at) / RFU, VPS4B / Fold change vs veh, VPS4B / RFU, CREB1 / Fold change vs veh, CREB1 / RFU, DNAJC13 / Fold change vs veh, DNAJC13 / RFU, GNAQ / Fold change vs veh, GNAQ / RFU, CDK5R1 / Fold change vs veh, CDK5R1 / RFU, ZRANB3 / Fold change vs veh, ZRANB3 / RFU, CUL4A / Fold change vs veh, CUL4A / RFU, CCNY / Fold change vs veh, CCNY / RFU, UFL1 / Fold change vs veh, UFL1 / RFU, COG3 / Fold change vs veh, COG3 / RFU, DIAPH2 / Fold change vs veh, DIAPH2 / RFU, SKA2 / Fold change vs veh, SKA2 / RFU, AFF3 / Fold change vs veh, AFF3 / RFU, LMF1 / Fold change vs veh, LMF1 / RFU, IPO11 / Fold change vs veh, IPO11 / RFU, DFFB / Fold change vs veh, DFFB / RFU, FOXP1 / Fold change vs veh, FOXP1 / RFU, CARD8 / Fold change vs veh, CARD8 / RFU, STRN3 / Fold change vs veh, STRN3 / RFU, ADK / Fold change vs veh, ADK / RFU, RASSF2 / Fold change vs veh, RASSF2 / RFU, WIPF1 / Fold change vs veh, WIPF1 / RFU, LARP1B / Fold change vs veh, LARP1B / RFU, RASA1 / Fold change vs veh, RASA1 / RFU, RB1 / Fold change vs veh, RB1 / RFU, PPFIA1 / Fold change vs veh, PPFIA1 / RFU, MAT2A / Fold change vs veh, MAT2A / RFU, CCT5 / Fold change vs veh, CCT5 / RFU, WDR92 / Fold change vs veh, WDR92 / RFU, CUX1 / Fold change vs veh, CUX1 / RFU, TTC7A / Fold change vs veh, TTC7A / RFU, TMEM135 / Fold change vs veh, TMEM135 / RFU, DEPTOR / Fold change vs veh, DEPTOR / RFU, CPM / Fold change vs veh, CPM / RFU, DNAJB6 / Fold change vs veh, DNAJB6 / RFU, CACNA2D3 / Fold change vs veh, CACNA2D3 / RFU, DTX4 / Fold change vs veh, DTX4 / RFU, TFCP2 / Fold change vs veh, TFCP2 / RFU, GMCL1 /// GMCL1P1 / Fold change vs veh, GMCL1 /// GMCL1P1 / RFU, AEBP2 / Fold change vs veh, AEBP2 / RFU, SNHG1 /// SNORD22 /// SNORD25 /// SNORD26 /// SNORD27 /// SNORD28 /// SNORD29 /// SNORD31 / Fold change vs veh, SNHG1 /// SNORD22 /// SNORD25 /// SNORD26 /// SNORD27 /// SNORD28 /// SNORD29 /// SNORD31 / Fold change (Aza/veh), C12orf56 (ProbeSet 11735607_a_at) / Fold change (ACY-1035/veh), C12orf56 (ProbeSet 11735607_a_at) / Fold change (Aza/veh), FGFR1OP (ProbeSet 11751329_s_at) / Fold change (ACY-1035/veh), FGFR1OP (ProbeSet 11751329_s_at) / Fold change (Aza/veh), VPS36 (ProbeSet 11739960_a_at) / Fold change (ACY-1035/veh), VPS36 (ProbeSet 11739960_a_at) / RFU SYPL1 (11715823_x_at) / Fold change /veh SYPL1 (11715823_x_at) / RFU IGFBP7 (11715501_s_at) / Fold change /veh IGFBP7 (11715501_s_at) / RFU REEP3 (11722064_at) / Fold change /veh REEP3 (11722064_at) / RFU IGLL1 (11728026_x_at) / Fold change /veh IGLL1 (11728026_x_at): dose or concentration left out as unconfirmed
Settings: MV-4-11 cells, 48 hours

Question: How did the “RFU CYB561 (11721691_x_at)” value turn out when `Nc1ncn([C@@H]2O[C@H](CO)[C@@H](O)[C@H]2O)c(=O)n1` [azacitidine] was run?
Answer: 13.47 RFU
